Here are results for two compounds from US12669496B2, “Method for evaluating and/or screening a control agent for tissue morphology and/or tissue function” (ROHTO PHARMACEUTICAL CO., LTD., priority 2020, dated 2026).

Test [1] concerns MRTFA. Description: Real-time PCR of MRTFA gene expression in skin equivalent models. To be noted: 10 μM, 6 to 48 hours; tensional homeostatic skin equivalent model (confirmed only in this model). It counts as cell-based, human.
The subject of a further test is COL1A1. The test is described as follows: Real-time PCR of COL1A1 gene expression in skin equivalent models. The test is classed as cell-based, human. To be noted: 6 to 48 hours. Background: Real-time PCR tracks product formation cycle by cycle.
A further test concerns type I collagen. The test is described as follows: Immunohistochemical staining of type I collagen in skin equivalent. It counts as cell-based, human.
The subject of the next test is HAS3. Description: Real-time PCR of HAS3 gene expression in skin equivalent models. To be noted: 10 μM.
Another test deals with ITGA2. Description: Immunohistochemical staining of ITGA2 in skin equivalent models. The test is classed as cell-based, human. To be noted: 10 nM, 6 to 48 hours; tensional homeostatic model; to levels approximately equivalent to tension-released model.
In test [2] the test system is MRTFA. The test is described as follows: Immunohistochemical staining of MRTFA in skin equivalent models. The test is classed as cell-based, human. To be noted: 10 nM, 6 to 48 hours; tensional homeostatic model; to levels approximately equivalent to tension-released model.
The next test concerns αSMA. The test is described as follows: Immunohistochemical staining of αSMA in skin equivalent models. It counts as cell-based, human. To be noted: 10 nM, 6 to 48 hours; tensional homeostatic model; to levels approximately equivalent to tension-released model.
Test [3] relates to MRTFA. The test is described as follows: Image analysis of nuclear import rates of MRTFA. To be noted: 10 nM, 6 to 48 hours; image analysis of immunohistochemical staining. The test is classed as cell-based, human.
For another test, the system named is COL1A2. The test is described as follows: Real-time PCR of COL1A2 gene expression in skin equivalent models. It counts as cell-based, human. To be noted: 10 nM, 6 to 48 hours; tensional homeostatic model; to the equivalent level in tension-released skin equivalent.
The next test concerns FBN1. Description: Real-time PCR of FBN1 gene expression in skin equivalent models. To be noted: 10 nM, 6 to 48 hours; tensional homeostatic model; to the equivalent level in tension-released skin equivalent. The test is classed as cell-based, human.
The test system of a further test is ELN. Description: Real-time PCR of ELN gene expression in skin equivalent models. The test is classed as cell-based, human. To be noted: 10 nM, 6 to 48 hours; tensional homeostatic model; to the equivalent level in tension-released skin equivalent.
The subject of the next test is MMP1. Description: Real-time PCR of MMP1 gene expression in skin equivalent models. The test is classed as cell-based, human. To be noted: 10 nM, 6 to 48 hours; tensional homeostatic model; to the equivalent level in tension-released skin equivalent.
Test [4] relates to Tensional homeostatic skin equivalent. The test is described as follows: Fluorescent staining of actin cytoskeleton and cell membrane (tissue orientation). The test is classed as cell-based, human. To be noted: 10 nM, to level approximately equivalent to tension-released model.

Regarding `CC1=C(/C=C/C(C)=C/C=C/C(C)=C/C(=O)O)C(C)(C)CCC1` [ATRA, all-trans retinoic acid], in the test with MRTFA [1], the MRTFA gene expression entry was “significant increase”. Further, the COL1A1 gene expression result in the test with COL1A1 (10 μM, Tensional homeostatic skin equivalent vs control group (confirmed only in this model)) is reported as “significant promotion of gene expression”. Also, the “expression of type I collagen (collagen fiber formation)” value in the test on type I collagen (10 μM, Tensional homeostatic skin model, vs control group) is “increased”. Also, the HAS3 gene expression result in the test on HAS3 (6 to 48 hours, each skin equivalent model, compared with all the control groups) was “significant promotion of gene expression”. Besides, the “ratio of the HAS3 expression promotion” value in the test on HAS3 (Tensional homeostatic skin equivalent compared with the other models) is recorded as “highest value”.
For `C[C@@H](N)[C@H]1CC[C@H](C(=O)Nc2ccncc2)CC1` [Y27632], the “gene expression of COL1A1” value in the test with COL1A1 (10 nM, tensional homeostatic model, to the equivalent level in tension-released skin equivalent) is listed as “significantly inhibited”. In addition, the “expression level of type I collagen (collagen fiber formation)” value with type I collagen (10 nM, Tensional homeostatic skin equivalent, to level approximately equivalent to tension-released model) is given as “reduced”. Moreover, the “expression level of ITGA2” value in the test with ITGA2 is “reduces the expression levels”. Also, the “expression level of MRTFA” value in the test on MRTFA [2] is listed as “reduces the expression levels”. Besides, the “expression level of αSMA” value in the test with αSMA is “reduces the expression levels”. The “nuclear import rates of MRTFA” value with MRTFA [3] is reported as “significantly reduced”. Besides, the “gene expression of COL1A2” value in the test on COL1A2 was “significantly inhibited”. Besides, the “gene expression of FBN1” value with FBN1 is on record as “significantly inhibited”. Also, the “gene expression of ELN” value in the test on ELN is given as “significantly inhibited”. Further, in the test on MMP1, the “gene expression of MMP1” value is reported as “significantly increased”. Further, in [4], the “orientations of the cytoskeletons, cell membranes, and nuclei in the tension direction” value is “reduced the orientations”.
